Measured values from patent US20250214977A1, “STAT6 INHIBITORS AND USES THEREOF” (Kymera Therapeutics, Inc., priority 2024, published 2025).
pIC50: −log10 of the molar value.

System: Phosphorylation of STAT6 in human A549 cells
Assay: Phosphorylated STAT6 (pSTAT6) flow cytometry assay in human A549 cells
Assay type: cell-based
Settings: read-out: STAT6 IL4 pSTAT6 assay in A549 cells: Average IC50
From the text: Example 3. Phosphorylated STAT6 (pSTAT6) Flow Cytometry Assay in Human A549 Cells
Phosphorylation of STAT6 in human A549 cells was quantitatively measured using flow cytometry technology.

Compound	pIC50
CN(C)C(=O)c1cc2cc(C3=CCCN(C(=O)CCn4ccnn4)C3)cc(-c3ccc(C(F)(F)F)cc3O)c2o1 [Example I-1073]	> 7.00
CN(C)C(=O)c1cc2cc(C3=CCCN(C(=O)CCn4ccnn4)C3)cc(-c3ccc(F)cc3O)c2o1 [Example I-1074]	> 7.00
Cc1[nH]nc2ccc(-c3cc(C4=CCCN(C(=O)CCn5ccnn5)C4)cc4cc(C(=O)N(C)C)oc34)cc12 [Example I-1075]	> 7.00
COc1c(F)cccc1-c1cc(C2=CCCN(C(=O)CCn3ccnn3)C2)cc2cc(C(=O)N(C)C)oc12 [Example I-1076]	> 7.00
CN(C)C(=O)c1cc2cc(C3=CCCN(C(=O)CCn4ccnn4)C3)cc(-c3cnn(C)c3)c2o1 [Example I-1077]	> 7.00
COc1cc(C)c(-c2cc(C3=CCCN(C(=O)CCn4ccnn4)C3)cc3cc(C(=O)N(C)C)oc23)cc1C [Example I-1078]	> 7.00
Cc1ccc(C#N)cc1-c1cc(C2=CCCN(C(=O)CCn3ccnn3)C2)cc2cc(C(=O)N(C)C)oc12 [Example I-1079]	> 7.00
CN(C)C(=O)c1cc2cc(C3=CCCN(C(=O)CCn4ccnn4)C3)cc(-c3ccc4[nH]ncc4c3)c2o1 [Example I-1080]	> 7.00
CN(C)C(=O)c1cc2cc(C3=CCCN(C(=O)CCn4ccnn4)C3)cc(-c3cc(F)ccc3C(F)(F)F)c2o1 [Example I-1081]	> 7.00
COc1ncccc1-c1cc(C2=CCCN(C(=O)CCn3ccnn3)C2)cc2cc(C(=O)N(C)C)oc12 [Example I-1082]	> 7.00
Cc1cc(F)ccc1-c1cc(C2=CCCN(C(=O)CCn3ccnn3)C2)cc2cc(C(=O)N(C)C)oc12 [Example I-1083]	> 7.00
Cc1ccc(-c2cc(C3=CCCN(C(=O)CCn4ccnn4)C3)cc3cc(C(=O)N(C)C)oc23)cn1 [Example I-1084]	> 7.00
Cc1c[nH]c2ncc(-c3cc(C4=CCCN(C(=O)CCn5ccnn5)C4)cc4cc(C(=O)N(C)C)oc34)cc12 [Example I-1085]	> 7.00
Cc1ccccc1-c1cc(C2=CCCN(C(=O)CCn3ccnn3)C2)cc2cc(C(=O)N(C)C)oc12 [Example I-1086]	> 7.00
CN1CCN(c2ccc(-c3cc(C4=CCCN(C(=O)CCn5ccnn5)C4)cc4cc(C(=O)N(C)C)oc34)cn2)CC1 [Example I-1087]	> 7.00
COc1cc(-c2cc(C3=CCCN(C(=O)CCn4ccnn4)C3)cc3cc(C(=O)N(C)C)oc23)cc(OC)c1OC [Example I-1088]	> 7.00
CN(C)C(=O)c1cc2cc(C3=CCCN(C(=O)CCn4ccnn4)C3)cc(-c3ccc4cncnc4c3)c2o1 [Example I-1089]	> 7.00
COc1cncc(C)c1-c1cc(C2=CCCN(C(=O)CCn3ccnn3)C2)cc2cc(C(=O)N(C)C)oc12 [Example I-1090]	> 7.00
COc1ccccc1-c1cc(C2=CCCN(C(C)=O)C2)cc2[nH]c(C(=O)N(C)C)cc12 [Example I-1091]	6.00 to 7.00
CNc1ccc(-c2cc(C3=CCCN(C(C)=O)C3)c(F)c3[nH]c(C(=O)N(C)C)cc23)c(OC)c1 [Example I-1092]	> 7.00

Compound	pIC50
CC(=O)N1CCC=C(c2cc(-c3ccccc3N(C)C)c3cc(C(=O)N(C)C)[nH]c3c2F)C1 [Example I-1093]	6.00 to 7.00
COc1ccncc1-c1cc(C2=CCCN(C(C)=O)C2)c(F)c2[nH]c(C(=O)N(C)C)cc12 [Example I-1094]	> 7.00
CC(=O)N1CCC=C(c2cc(-c3cccc4c3OCCO4)c3cc(C(=O)N(C)C)[nH]c3c2F)C1 [Example I-1095]	> 7.00
CN(C)C(=O)c1ccc2c(c1)cc(C1=CCCN(C(=O)CCn3ccnn3)C1)n2CC1CC1 [Example I-1096]	> 7.00
CC(=O)c1ccccc1-c1cc(C2=CCCN(C(C)=O)C2)c(F)c2[nH]c(C(=O)N(C)C)cc12 [Example I-1097]	< 4.00
CC(=O)N1CCC=C(c2cc(-c3cncc4ccccc34)c3cc(C(=O)N(C)C)[nH]c3c2F)C1 [Example I-1098]	> 7.00
CC(=O)N1CCC=C(c2cc(-c3ccccc3C(N)=O)c3cc(C(=O)N(C)C)[nH]c3c2F)C1 [Example I-1099]	6.00 to 7.00
Cc1c[nH]c2ncc(-c3cc(C4=CCCN(C(=O)CCn5ccnn5)C4)c(F)c4cc(C(=O)N(C)C)oc34)cc12 [Example I-1100]	> 7.00
Cc1c[nH]c2ncc(-c3cc(C4=CCCN(C(=O)CCn5ccnn5)C4)c(F)c4[nH]c(C(=O)N(C)C)cc34)cc12 [Example I-1101]	> 7.00
COc1ccccc1-c1cc(C2=CCCN(C(=O)CCn3ccnn3)C2)cc2cc(C(=O)N(C)C)oc12 [Example I-1103]	> 7.00
COc1ccccc1-c1cc(C2=CCCN(C(C)=O)C2)c(F)c2cc(C(=O)N(C)C)oc12 [Example I-1104]	6.00 to 7.00
COc1cccc(F)c1-c1cc(C2=CCCN(C(C)=O)C2)c(F)c2cc(C(=O)N(C)C)oc12 [Example I-1105]	6.00 to 7.00
COc1ccccc1-c1cc(C2=CCCN(C(C)=O)C2)c(F)c2sc(C(=O)N3CCN(c4ncccc4OC)CC3)cc12 [Example I-1106]	5.00 to 6.00
COc1cc(F)ccc1-c1cc(C2=CCCN(C(=O)CCn3ccnn3)C2)c(F)c2[nH]c(C(=O)N3CCN(c4ccc(F)c(OC)n4)CC3)cc12 [Example I-1107]	6.00 to 7.00
CCOc1ccncc1-c1cc(C2=CCCN(C(=O)CCn3ccnn3)C2)c(F)c2[nH]c(C(=O)N3CCN(c4ncncc4OC)CC3)cc12 [Example I-1108]	> 7.00
COc1cccc(N2CCN(C(=O)c3cc4c(-c5ccc(N(C)C)cc5OC)cc(C5=CCCN(C(=O)CCn6ccnn6)C5)c(F)c4[nH]3)CC2)n1 [Example I-1109]	> 7.00
COc1cc(F)cnc1N1CCN(C(=O)c2cc3c(C=CC(C)(C)O)cc(C4=CCCN(C(=O)CCn5ccnn5)C4)c(F)c3[nH]2)CC1 [Example I-1110]	> 7.00
COc1cc(F)cnc1N1CCN(C(=O)c2cc3c(-c4ccc(OC5CCOCC5)cc4)cc(C4=CCCN(C(=O)CCn5ccnn5)C4)c(F)c3[nH]2)CC1 [Example I-1111]	> 7.00
COCCCOc1ccc(-c2cc(C3=CCCN(C(=O)CCn4ccnn4)C3)c(F)c3[nH]c(C(=O)N4CCN(c5ncc(F)cc5OC)CC4)cc23)cc1 [Example I-1112]	> 7.00
COc1cc(F)cnc1N1CCN(C(=O)c2cc3c(-c4ccn(-c5ccccc5)n4)cc(C4=CCCN(C(=O)CCn5ccnn5)C4)c(F)c3[nH]2)CC1 [Example I-1113]	6.00 to 7.00

Compound	pIC50
COc1cc(F)cnc1N1CCN(C(=O)c2cc3c(-c4ccc(-n5nc(C)cc5C)cc4)cc(C4=CCCN(C(=O)CCn5ccnn5)C4)c(F)c3[nH]2)CC1 [Example I-1114]	> 7.00
COc1cc(F)cnc1N1CCN(C(=O)c2cc3c(-c4cnn(Cc5ccccc5)c4)cc(C4=CCCN(C(=O)CCn5ccnn5)C4)c(F)c3[nH]2)CC1 [Example I-1115]	> 7.00
COc1cc(F)cnc1N1CCN(C(=O)c2cc3c(C4=CC(=O)CC4)cc(C4=CCCN(C(=O)CCn5ccnn5)C4)c(F)c3[nH]2)CC1 [Example I-1116]	> 7.00
COc1cc(F)cnc1N1CCN(C(=O)c2cc3c(C4=CCN(c5ccccn5)CC4)cc(C4=CCCN(C(=O)CCn5ccnn5)C4)c(F)c3[nH]2)CC1 [Example I-1117]	> 7.00
COc1cc(F)cnc1N1CCN(C(=O)c2cc3c(-c4ccc(-c5ccncc5)cc4)cc(C4=CCCN(C(=O)CCn5ccnn5)C4)c(F)c3[nH]2)CC1 [Example I-1118]	> 7.00
COc1cc(F)cnc1N1CCN(C(=O)c2cc3c(-c4cccc5cnccc45)cc(C4=CCCN(C(=O)CCn5ccnn5)C4)c(F)c3[nH]2)CC1 [Example I-1119]	> 7.00
COc1cc(F)cnc1N1CCN(C(=O)c2cc3c(-c4ccc(-c5ccccn5)cc4)cc(C4=CCCN(C(=O)CCn5ccnn5)C4)c(F)c3[nH]2)CC1 [Example I-1120]	> 7.00
COc1cc(F)cnc1N1CCN(C(=O)c2cc3c(-c4ccc(C(C)N5CCOCC5)cc4)cc(C4=CCCN(C(=O)CCn5ccnn5)C4)c(F)c3[nH]2)CC1 (stereo not drawn) [Example I-1121]	> 7.00
COc1cc(F)cnc1N1CCN(C(=O)c2cc3c(-c4ccc(CN5CCOCC5)cc4)cc(C4=CCCN(C(=O)CCn5ccnn5)C4)c(F)c3[nH]2)CC1 [Example I-1122]	> 7.00
COc1cc(F)cnc1N1CCN(C(=O)c2cc3c(-c4ccccc4CN4CCOCC4)cc(C4=CCCN(C(=O)CCn5ccnn5)C4)c(F)c3[nH]2)CC1 [Example I-1123]	> 7.00
COc1cc(F)cnc1N1CCN(C(=O)c2cc3c(-c4ccc(NC5CCCC5)cc4)cc(C4=CCCN(C(=O)CCn5ccnn5)C4)c(F)c3[nH]2)CC1 [Example I-1124]	6.00 to 7.00
CCOCc1cc(F)ccc1-c1cc(C2=CCCN(C(=O)CCn3ccnn3)C2)c(F)c2[nH]c(C(=O)N3CCN(c4ncc(F)cc4OC)CC3)cc12 [Example I-1125]	> 7.00
COc1cc(F)cnc1N1CCN(C(=O)c2cc3c(C4=CCCOC4)cc(C4=CCCN(C(=O)CCn5ccnn5)C4)c(F)c3[nH]2)CC1 [Example I-1126]	> 7.00
CCCCOc1ccc(-c2cc(C3=CCCN(C(=O)CCn4ccnn4)C3)c(F)c3[nH]c(C(=O)N4CCN(c5ncc(F)cc5OC)CC4)cc23)cc1 [Example I-1127]	6.00 to 7.00
CCOCc1cc(-c2cc(C3=CCCN(C(=O)CCn4ccnn4)C3)c(F)c3[nH]c(C(=O)N4CCN(c5ncc(F)cc5OC)CC4)cc23)ccc1F [Example I-1128]	> 7.00
COc1cccc(/C=C/c2cc(C3=CCCN(C(=O)CCn4ccnn4)C3)c(F)c3[nH]c(C(=O)N4CCN(c5ncc(F)cc5OC)CC4)cc23)c1 [Example I-1129]	> 7.00
COc1ccccc1/C=C/c1cc(C2=CCCN(C(=O)CCn3ccnn3)C2)c(F)c2[nH]c(C(=O)N3CCN(c4ncc(F)cc4OC)CC3)cc12 [Example I-1130]	6.00 to 7.00
COc1cc(F)cnc1N1CCN(C(=O)c2cc3c(C4=CCN(C5CC5)CC4)cc(C4=CCCN(C(=O)CCn5ccnn5)C4)c(F)c3[nH]2)CC1 [Example I-1131]	> 7.00
COc1cc(F)cnc1N1CCN(C(=O)c2cc3c(C4=CCN(Cc5ccccc5)CC4)cc(C4=CCCN(C(=O)CCn5ccnn5)C4)c(F)c3[nH]2)CC1 [Example I-1132]	> 7.00
COc1cc(F)cnc1N1CCN(C(=O)c2cc3c(C4=CCN(C(C)C)CC4)cc(C4=CCCN(C(=O)CCn5ccnn5)C4)c(F)c3[nH]2)CC1 [Example I-1133]	> 7.00
